Experimental findings from patent US20230374038A1, “MODULATORS OF CYSTIC FIBROSIS TRANSMEMBRANE CONDUCTANCE REGULATOR” (VERTEX PHARMACEUTICALS INCORPORATED, priority 2020, published 2023) are described below.

The structures appear in SMILES notation.

The first assay deals with CFTR (Homo sapiens, UniProt P13569). As to the kind of experiment: Membrane Potential Dye, Enteroid Assay B. The class given is cell-based.
Sequence of CFTR (Homo sapiens, UniProt P13569) (P13569 with tags, fused parts or gaps DEL508-508): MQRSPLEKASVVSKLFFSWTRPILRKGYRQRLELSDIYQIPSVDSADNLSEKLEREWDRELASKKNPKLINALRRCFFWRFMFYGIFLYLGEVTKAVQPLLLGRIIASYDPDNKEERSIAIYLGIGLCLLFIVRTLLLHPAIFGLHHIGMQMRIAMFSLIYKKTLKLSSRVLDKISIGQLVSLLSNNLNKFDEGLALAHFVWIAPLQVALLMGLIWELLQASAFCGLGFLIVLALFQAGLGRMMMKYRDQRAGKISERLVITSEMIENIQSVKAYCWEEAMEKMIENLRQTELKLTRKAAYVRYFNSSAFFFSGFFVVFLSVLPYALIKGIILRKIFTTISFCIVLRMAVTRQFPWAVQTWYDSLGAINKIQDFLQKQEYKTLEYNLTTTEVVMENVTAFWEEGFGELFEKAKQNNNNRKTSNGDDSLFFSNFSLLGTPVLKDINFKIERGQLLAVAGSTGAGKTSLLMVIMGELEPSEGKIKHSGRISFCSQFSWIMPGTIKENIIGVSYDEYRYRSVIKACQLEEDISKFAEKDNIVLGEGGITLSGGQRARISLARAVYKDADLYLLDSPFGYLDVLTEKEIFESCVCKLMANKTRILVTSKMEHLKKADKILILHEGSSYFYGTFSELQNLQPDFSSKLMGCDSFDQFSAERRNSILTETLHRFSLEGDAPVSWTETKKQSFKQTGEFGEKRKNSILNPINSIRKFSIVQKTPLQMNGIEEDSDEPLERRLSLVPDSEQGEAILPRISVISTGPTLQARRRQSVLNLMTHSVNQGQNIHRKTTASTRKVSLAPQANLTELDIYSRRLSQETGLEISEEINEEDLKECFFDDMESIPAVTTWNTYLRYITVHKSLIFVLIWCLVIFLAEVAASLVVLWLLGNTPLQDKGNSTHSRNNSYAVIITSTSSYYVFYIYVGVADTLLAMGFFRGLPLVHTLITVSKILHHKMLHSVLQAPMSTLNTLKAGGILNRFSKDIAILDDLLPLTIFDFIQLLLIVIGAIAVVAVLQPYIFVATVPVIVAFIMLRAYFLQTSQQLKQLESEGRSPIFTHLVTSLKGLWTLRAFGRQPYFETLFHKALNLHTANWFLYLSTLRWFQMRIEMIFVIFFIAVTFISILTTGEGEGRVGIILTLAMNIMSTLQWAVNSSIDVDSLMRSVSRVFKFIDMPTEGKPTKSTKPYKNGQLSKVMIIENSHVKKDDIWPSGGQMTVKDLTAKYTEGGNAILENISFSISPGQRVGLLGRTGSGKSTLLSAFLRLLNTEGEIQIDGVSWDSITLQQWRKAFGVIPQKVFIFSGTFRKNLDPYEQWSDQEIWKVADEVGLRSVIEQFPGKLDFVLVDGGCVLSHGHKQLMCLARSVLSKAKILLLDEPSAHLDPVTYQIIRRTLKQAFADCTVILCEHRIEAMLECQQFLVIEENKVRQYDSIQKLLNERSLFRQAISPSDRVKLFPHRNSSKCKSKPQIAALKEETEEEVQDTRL
Conditions: not given
The method, boiled down: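 Membrane-potential fluorescence read over 15 min after chloride-free stimulation (forskolin 10 μM, IBMX 100 μM, Compound III 300 nM), with CaCCinh-A01 and Chicago Sky Blue present. Enteroids had 18-24 h compound exposure at 37 °C; activity given as % of the triple-combination corrector/potentiator reference response.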
For `Cc1cccc(C)c1-c1nc2nc(c1C)OC[C@@H](CC(C)(C)C)N(C1CC3(CC3)C1)C(=O)c1cccc(c1)S(=O)(=O)N2` [Compound 101], the “Ent. B Max Activity” value is given as “+++ (+++ is >60%)”.
On to `Cc1cccc(C)c1-c1nc2nc(c1C1=CCOCC1)OC[C@@H](C)NC(=O)c1cccc(c1)S(=O)(=O)N2` [Compound 140], for which the “Ent. B Max Activity” value is “++ (++ is 30-60%)”.
With `Cc1cccc(C)c1-c1nc2nc(c1C1=CCN(C(=O)OC(C)(C)C)CC1)O[C@H](C)CNC(=O)c1cccc(c1)S(=O)(=O)N2` [Compound 149], the “Ent. B Max Activity” value was “++ (++ is 30-60%)”.
On the same count and under the same terms, under `Cc1cccc(C)c1-c1nc2nc(c1F)OC[C@@H](CC(C)C)N(C1CC3(CC3)C1)C(=O)c1cccc(c1)S(=O)(=O)N2` [Compound 175] stands “+++ (+++ is >60%)”.

Still in this assay, the particulars now being: read-out: Ent. B EC50.
With `Cc1cccc(C)c1-c1nc2nc(c1C)OC[C@@H](CC(C)(C)C)N(C1CC3(CC3)C1)C(=O)c1cccc(c1)S(=O)(=O)N2` [Compound 101], the EC50 (in general, the concentration needed to bring the measured effect to its halfway point) was below 1000 nM.
With `Cc1cccc(C)c1-c1nc2nc(c1C1=CCOCC1)OC[C@@H](C)NC(=O)c1cccc(c1)S(=O)(=O)N2` [Compound 140], the half-maximal effective concentration (EC50) lay in the range of 3000 to 30000 nM.
Consider `Cc1cccc(C)c1-c1nc2nc(c1C1=CCN(C(=O)OC(C)(C)C)CC1)O[C@H](C)CNC(=O)c1cccc(c1)S(=O)(=O)N2` [Compound 149], for which the half-maximal effective concentration (EC50) was below 1000 nM.
As to `Cc1cccc(C)c1-c1nc2nc(c1F)OC[C@@H](CC(C)C)N(C1CC3(CC3)C1)C(=O)c1cccc(c1)S(=O)(=O)N2` [Compound 175], the concentration for a half-maximal effect (EC50) is below 1000 nM.

For another assay, the target named is T1, CFTR (Homo sapiens, UniProt P13569, DEL508-508).
T1 construct: endogenous in cells; host or cells: primary human bronchial epithelial cells, F508del/MF genotype
T1 sequence (P13569 with tags, fused parts or gaps DEL508-508): as above
As to the kind of experiment: HBE Assay: Ussing chamber assay of CFTR-mediated short-circuit currents in F508del/MF-HBE cells with 1 μM Ivacaftor. In kind it is cell-based. The following applies: single fixed concentration of 10 μM with 1 μM Ivacaftor, 18-24 hours, 20% human serum. How it is done:
Ussing chamber experiments were performed using human bronchial epithelial (HBE) cells derived from CF subjects heterozygous for F508del and a minimal function CFTR mutation (F508del/MF-HBE) and cultured as previously described (Neuberger T, Burton B, Clark H, Van Goor F Methods Mol Biol 2011:741:39-54). After four days the apical media was removed, and the cells were grown at an air liquid interface for >14 days prior to use.
(§1) To isolate the CFTR-mediated short-circuit (ISC) current, F508del/MF-HBE grown on Costar® Snapwell™ cell culture inserts were mounted in an Ussing chamber and the transepithelial ISC was measured under voltage-clamp recording conditions (Vhold=0 mV) at 37° C. The basolateral solution contained (in mM) 145 NaCl, 0.83 K2HIPO4, 3.3 KH2PO4, 1.2 MgCl2, 1.2 CaCl2), 10 Glucose, 10 HEPES (pH adjusted to 7.4 with NaOH) and the apical solution contained (in mM) 145 NaGluconate, 1.2 MgCl2, 1.2 CaCl2), 10 glucose, 10 HEPES (pH adjusted to 7.4 with NaOH) and 30 μM amiloride to block the epithelial sodium channel. Forskolin (20 μM) was added to the apical surface to activate CFTR, followed by apical addition of a CFTR inhibitor cocktail consisting of BPO, GlyH-101, and CFTR inhibitor 172 (each at 20 μM final assay concentration) to specifically isolate CFTR currents. The CFTR-mediated ISC (μA/cm^2) for each condition was determined from the peak forskolin response to the steady-state current following inhibition.
The activity of the CFTR corrector compounds on the CFTR-mediated ISC was determined in Ussing chamber studies as described above. The F508del/MF-HBE cell cultures were either incubated with the corrector compounds at a range of concentrations in combination with 1 μM Ivacaftor or were incubated with the corrector compounds at a single fixed concentration of 10 μM in combination with 1 μM Ivacaftor for 18-24 hours at 37° C. and in the presence of 20% human serum. The concentration of corrector compounds with 1 μM Ivacaftor during the 18-24 hours incubations was kept constant throughout the Ussing chamber measurement of the CFTR-mediated ISC to ensure compounds were present throughout the entire experiment.
as §1, with “K2HPO4,” for “K2HIPO4,”
Consider `Cc1cccc(CC2COC2)c1-c1nc2nc(c1C)OC[C@@H](CC(C)(C)C)N(Cc1ncc(OC(C)C)cn1)C(=O)c1cccc(c1)S(=O)(=O)N2` [Compound 347], for which the “HBE Activity at 10 μM (%)” value is “+++ (+++ is >60%)”.

The assay is the same for the next values; noted with them: single fixed concentration of 10 μM, with 1 μM Ivacaftor, 20% human serum.
For the compound `Cc1cccc(CC2CCCCC2)c1-c1nc2nc(c1C(F)(F)F)OC[C@@H](CC(C)(C)C)N(Cc1ncc(N3CCOCC3)cn1)C(=O)c1cccc(c1)S(=O)(=O)N2` (atropisomer, axis not shown) [Compound 245], the “HBE Activity at 10 μM” value was “++ (++ is 30-60%)”.
Consider `COCCN(C)c1cnc(CN2C(=O)c3cccc(c3)S(=O)(=O)Nc3nc(c(C)c(-c4c(C)cccc4CC(C)C)n3)OC[C@H]2CC(C)(C)C)nc1` (atropisomer, axis not shown) [Compound 293], for which the “HBE Activity at 10 μM” value is recorded as “+++ (+++ is >600%)”.
Turning to `Cc1cccc(CC2CCOCC2)c1-c1nc2nc(c1C)OC[C@@H](CC(C)(C)C)N(Cc1ncc(N3CCC(C)(C)C3)cn1)C(=O)c1cccc(c1)S(=O)(=O)N2` (atropisomer, axis not shown) [Compound 272], the “HBE Activity at 10 μM” value is “++ (++ is 30-60%)”.
In the case of `Cc1cccc(CC2CCCC2)c1-c1nc2nc(c1C)OC[C@@H](CC(C)(C)C)NC(=O)c1cccc(c1)S(=O)(=O)N2` (atropisomer, axis not shown) [Compound 225], the “HBE Activity at 10 μM” value is “+++ (+++ is >600%)”.
Regarding `Cc1cccc(CC(C)C)c1-c1nc2nc(c1C(F)(F)F)OC[C@@H](CC(C)(C)C)N(Cc1ccc(N3CCOCC3)cn1)C(=O)c1cccc(c1)S(=O)(=O)N2` (atropisomer, axis not shown) [Compound 247], the “HBE Activity at 10 μM” value was “++ (++ is 30-60%)”.

Still in this assay, the particulars now being: with 1 μM Ivacaftor, 18-24 hours, 20% human serum.
As to `Cc1cccc(C(C)C)c1-c1nc2nc(c1C)OC[C@@H](CC(C)(C)C)N(Cc1ncc(N3CCOCC3)cn1)C(=O)c1cccc(c1)S(=O)(=O)N2` (single isomer, unassigned) [Compound 208], the half-maximal effective concentration (EC50) is below 1000 nM and the “HBE Max Activity” value is reported as “+++ (+++ is >600%)”.
`Cc1cccc(CC(C)C)c1-c1nc2nc(c1C(F)(F)F)OC[C@@H](CC(C)(C)C)N(Cc1ncc(N3CCOCC3)cn1)C(=O)c1cccc(c1)S(=O)(=O)N2` (single isomer, unassigned) [Compound 212]: the EC50 was below 1000 nM and the “HBE Max Activity” value was “+++ (+++ is >600%)”.
As to `Cc1cccc(CC(C)C)c1-c1nc2nc(c1C)OC[C@@H](C)N(Cc1ncc(N3CCC(C)(C)C3)cn1)C(=O)c1cccc(c1)S(=O)(=O)N2` (atropisomer, axis not shown) [Compound 242], the half-maximal effective concentration (EC50) was below 1000 nM and the “HBE Max Activity” value is on record as “+++ (+++ is >600%)”.
`Cc1cccc(CC(C)C)c1-c1nc2nc(c1C(F)(F)F)OC[C@@H](CC(C)(C)C)N(Cc1ccc(N3CCOCC3)cn1)C(=O)c1cccc(c1)S(=O)(=O)N2` (atropisomer, axis not shown) [Compound 246]: the EC50 was below 1000 nM and the “HBE Max Activity” value was “+++ (+++ is >600%)”.
For the compound `Cc1cccc(CC(C)C)c1-c1nc2nc(c1C)OC[C@@H](CC(C)(C)C)N(Cc1ncc(N3CCOCC3)cn1)C(=O)c1cccc(c1)S(=O)(=O)N2` (atropisomer, axis not shown) [Compound 295], the concentration for a half-maximal effect (EC50) was below 1000 nM and the “HBE Max Activity” value is reported as “+++ (+++ is >600%)”.
For the compound `Cc1cccc(CC2CCCCC2)c1-c1nc2nc(c1C)OC[C@@H](CC(C)(C)C)N(Cc1ncc(C3CCOCC3)cn1)C(=O)c1cccc(c1)S(=O)(=O)N2` [Compound 251], the concentration giving a half-maximal response (EC50) is below 1000 nM and the “HBE Max Activity” value is listed as “+++ (+++ is >600%)”.
Taken in the same sequence, the figures for `Cc1cccc(CC2CCCCC2)c1-c1nc2nc(c1C)OC[C@@H](CC(C)(C)C)N(Cc1nccc(N(C)C(C)C)n1)C(=O)c1cccc(c1)S(=O)(=O)N2` (atropisomer, axis not shown) [Compound 262] were below 1000 nM and “+++ (+++ is >600%)”.
For `Cc1cccc(CC(C)C)c1-c1nc2nc(c1C)OC[C@@H](CC(C)(C)C)N(Cc1ccc(N3CCOCC3)cn1)C(=O)c1cccc(c1)S(=O)(=O)N2` (atropisomer, axis not shown) [Compound 298], the EC50 was below 1000 nM and the “HBE Max Activity” value was “+++ (+++ is >600%)”.
Take `Cc1cccc(CC2CCCC2)c1-c1nc2nc(c1C)OC[C@@H](CC(C)(C)C)N(Cc1ccc(OC(C)C)cn1)C(=O)c1cccc(c1)S(=O)(=O)N2` (atropisomer, axis not shown) [Compound 267]: the EC50 is below 1000 nM and the “HBE Max Activity” value was “+++ (+++ is >600%)”.
With `Cc1cccc(C2CC2)c1-c1nc2nc(c1C)OC[C@@H](CC(C)(C)C)N(Cc1cnc(C3CCOCC3)cn1)C(=O)c1cccc(c1)S(=O)(=O)N2` (atropisomer, axis not shown) [Compound 320], the 50% effective concentration (EC50) is below 1000 nM and the “HBE Max Activity” value is “+++ (+++ is >600%)”.
In the same order, the values of `Cc1cccc(CC2CCOCC2)c1-c1nc2nc(c1C)OC[C@@H](CC(C)(C)C)N(Cc1ncc(N3CCOCC3)cn1)C(=O)c1cccc(c1)S(=O)(=O)N2` (single isomer, unassigned) [Compound 218] are below 1000 nM and “+++ (+++ is >600%)”.
As to `Cc1cccc(CC2CCCCC2)c1-c1nc2nc(c1C)OC[C@@H](CC(C)(C)C)N(Cc1ncc(N3CCOCC3)cn1)C(=O)c1cccc(c1)S(=O)(=O)N2` (atropisomer, axis not shown) [Compound 306], the EC50 was below 1000 nM and the “HBE Max Activity” value is reported as “+++ (+++ is >600%)”.
Take `Cc1cccc(CC2CCCCC2)c1-c1nc2nc(c1C)OC[C@@H](CC(C)(C)C)N(Cc1ncc(N3CC(C)(C)C3)cn1)C(=O)c1cccc(c1)S(=O)(=O)N2` (atropisomer, axis not shown) [Compound 253]: the EC50 was below 1000 nM and the “HBE Max Activity” value is listed as “+++ (+++ is >600%)”.
Regarding `Cc1cccc(CC2CCCCC2)c1-c1nc2nc(c1C)OC[C@@H](CC(C)(C)C)N(Cc1ncc(N(C)C)cn1)C(=O)c1cccc(c1)S(=O)(=O)N2` (atropisomer, axis not shown) [Compound 303], the EC50 was below 1000 nM and the “HBE Max Activity” value is “+++ (+++ is >600%)”.
Taken in the same sequence, the figures for `Cc1cccc(CC2CCCCC2)c1-c1nc2nc(c1C)OC[C@@H](CC(C)(C)C)N(Cc1ccc(C3CCOCC3)cn1)C(=O)c1cccc(c1)S(=O)(=O)N2` [Compound 257] were below 1000 nM and “+++ (+++ is >600%)”.
